# Values of other authors, collected in patent US10434213B2, “Controlled delivery system” (Wake Forest University Health Sciences, priority 2010, dated 2019).
# Tests used:
# bone marrow = conditions: White and Olden 1991
# [1] = system: IL-1, IL-2, TNF, GM-CSF and interferons; conditions: Newton 1989; Olden 1991
# tumor cells = conditions: in vitro
# [2] = system: colon cancer and melanoma cancers; conditions: combined with interferon, in vivo
# S. aureus 29213 = conditions: reported value
SMILES,Bone marrow proliferation (bone marrow),Production of multiple cytokines [1],"B- and T-cell immunity, natural killer T-cell and macrophage-induced destruction of tumor cells (tumor cells)",Anti-tumor activity [2],Minimum inhibitory concentration (MIC) (S. aureus 29213)
O[C@H]1[C@H]2[C@H](O)CCCN2C[C@H]1O [Swainsonine],capacity to stimulate bone marrow proliferation,stimulates,induces,direct anti-tumor activity,
O=C(O)c1cn(C2CC2)c2cc(N3CCNCC3)c(F)cc2c1=O [ciprofloxacin],,,,,0.25 µg/mL
